The subject of this experiment is P388 leukemia ip, CD2F1 mice, survival T/C. Put plainly: NCI In Vivo Anticancer Drug Screen. Data for tumor model P388 Leukemia (intraperitoneal) in CD2F1 (CDF1) mice. As to conditions: endpoint: median survival time, higher = longer survival. The procedure, abridged:
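Mice carrying the transplanted tumor received test compound or vehicle. Survival was recorded in each group, and the value is the treated-group measurement divided by that of the vehicle-treated control group.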

The mark [1] stands for this setting: dose: 50.0 mg/kg/injection, schedule: Q04DX003 (ip), vehicle: saline.
[2] abbreviates: dose: 100.0 mg/kg/injection, schedule: Q04DX003 (ip), vehicle: Klucel (hydroxypropylcellulose) (HPC).
Where [3] appears, read: dose: 100.0 mg/kg/injection, schedule: Q04DX003 (ip), vehicle: saline.
Where [4] appears, read: dose: 200.0 mg/kg/injection, schedule: Q04DX003 (ip), vehicle: Klucel (hydroxypropylcellulose) (HPC).
Setting [5] is: dose: 200.0 mg/kg/injection, schedule: Q04DX003 (ip), vehicle: saline.
[6] abbreviates: dose: 100.0 mg/kg/injection, schedule: Q01DX009 (ip), vehicle: saline with Tween-80.
[7] abbreviates: dose: 200.0 mg/kg/injection, schedule: Q01DX009 (ip), vehicle: saline with Tween-80.
The mark [8] stands for this setting: dose: 400.0 mg/kg/injection, schedule: Q01DX009 (ip), vehicle: saline with Tween-80.
Where [9] appears, read: dose: 50.0 mg/kg/injection, schedule: Q01DX005 (ip), vehicle: saline with Tween-80.
Setting [10] is: dose: 100.0 mg/kg/injection, schedule: Q01DX005 (ip), vehicle: saline with Tween-80.
The mark [11] stands for this setting: dose: 100.0 mg/kg/injection, schedule: Q01DX001 (ip), vehicle: saline with Tween-80.
[12] abbreviates: dose: 200.0 mg/kg/injection, schedule: Q01DX001 (ip), vehicle: saline with Tween-80.

The record followed here is PubChem BioAssay AID330 (DTP/NCI, 2004).

The structures appear in SMILES notation. “And” between values parts separate entries of the source, which are not always exact repeats. Equal values may be shown once. Toxic doses and inconclusive results are not listed.

In the case of `O=C1NC(=O)C(c2ccccc2)(c2ccccc2)N1CCS`, the T/C runs as follows: (dose: 12.5 mg/kg/injection, schedule: Q04DX003 (ip), vehicle: saline) 108 % of control; (dose: 25.0 mg/kg/injection, schedule: Q04DX003 (ip), vehicle: Klucel (hydroxypropylcellulose) (HPC)) 98 % of control and 108 % of control; (dose: 25.0 mg/kg/injection, schedule: Q04DX003 (ip), vehicle: saline) 100 % of control; (dose: 50.0 mg/kg/injection, schedule: Q04DX003 (ip), vehicle: Klucel (hydroxypropylcellulose) (HPC)) 98 % of control and 99 % of control; under setting [1], 104 % of control; under setting [2], 97 % of control. The T/C is 108 % of control under setting [3]; 100 % of control and 117 % of control under setting [4]; 94 % of control under setting [5]; 106 % of control and 109 % of control (dose: 400.0 mg/kg/injection, schedule: Q04DX003 (ip), vehicle: Klucel (hydroxypropylcellulose) (HPC)).
With `CCN(CC)CCN1C(=O)C2C3C=CC(C2C1=O)C1C2C(=O)N(CCN(CC)CC)C(=O)C2C31` (configuration not stated), the T/C is 104 % of control (dose: 6.25 mg/kg/injection, schedule: Q01DX009 (ip), vehicle: water); 99 % of control and 100 % of control (dose: 12.5 mg/kg/injection, schedule: Q01DX009 (ip), vehicle: water); 100 % of control and 111 % of control (dose: 25.0 mg/kg/injection, schedule: Q01DX009 (ip), vehicle: water); 99 % of control and 103 % of control (dose: 50.0 mg/kg/injection, schedule: Q01DX009 (ip), vehicle: water); 101 % of control and 111 % of control (dose: 100.0 mg/kg/injection, schedule: Q01DX009 (ip), vehicle: water).
For `O=C1CCC(=O)N1CC(O)COc1ccccc1` (configuration not stated), the T/C is, setting by setting: under setting [6], 95 % of control; under setting [7], 95 % of control; under setting [8], 100 % of control.
`CCO/C=N/NC(=O)CNC(=O)C=[N+]=[N-]`: the T/C (dose: 180.0 mg/kg/injection, schedule: Q01DX009 (ip), vehicle: water) was 172 % of control.
In the case of `O=C(Nc1ccc(Cl)cc1)Nc1nnc2nc(C(C(=O)c3cccs3)c3nc4nnc(NC(=O)Nc5ccc(Cl)cc5)n4[nH]c3=O)c(=O)[nH]n12`, the T/C is 91 % of control (dose: 60.0 mg/kg/injection, schedule: Q01DX005 (ip), vehicle: saline with Tween-80) and 94 % of control (dose: 120.0 mg/kg/injection, schedule: Q01DX005 (ip), vehicle: saline with Tween-80).
Turning to `COC(=O)c1[nH]c(=S)[nH]c(=O)c1C`, the T/C by setting is: under setting [9], 89 % of control; under setting [10], 97 % of control.
For `O=S(=O)(Nc1ccc(NS(=O)(=O)c2ccccc2)cc1)c1ccccc1`, the T/C by setting is: under setting [1], 100 % of control; under setting [3], 109 % of control; under setting [5], 100 % of control.
With `O=[N+]([O-])C1=CC(=N/Cl)/C=CC/1=N/Cl`, the T/C reads like this: (dose: 12.5 mg/kg/injection, schedule: Q01DX005 (ip), vehicle: saline) 105 % of control; (dose: 25.0 mg/kg/injection, schedule: Q01DX005 (ip), vehicle: saline) 100 % of control; (dose: 50.0 mg/kg/injection, schedule: Q01DX005 (ip), vehicle: saline) 101 % of control and 97 % of control; (dose: 100.0 mg/kg/injection, schedule: Q01DX005 (ip), vehicle: saline) 106 % of control; (dose: 200.0 mg/kg/injection, schedule: Q01DX005 (ip), vehicle: saline) 116 % of control.
On to `COC(=O)c1cc2cc(OC)c(OC)cc2c2ccccc12`, for which the T/C under setting [9] is 90 % of control and the T/C under setting [10] was 90 % of control.
Take `C/C(=C\CCC(C)C1CCC2(C)C3=C(CCC12C)C1(C)CCC(O)C(C)(C)C1CC3)C(=O)O` (configuration not stated): the T/C runs as follows: (dose: 12.5 mg/kg/injection, schedule: Q01DX005 (ip), vehicle: DMSO) 103 % of control; (dose: 25.0 mg/kg/injection, schedule: Q01DX005 (ip), vehicle: DMSO) 101 % of control; (dose: 50.0 mg/kg/injection, schedule: Q01DX005 (ip), vehicle: DMSO) 88 % of control; (dose: 100.0 mg/kg/injection, schedule: Q01DX005 (ip), vehicle: DMSO) 91 % of control.
`O=C1C=C(N2CCOCC2)C(=O)C=C1N1CCOCC1`: the T/C reads like this: (dose: 50.0 mg/kg/injection, schedule: Q01DX005 (ip), vehicle: Klucel (hydroxypropylcellulose) (HPC)) 90 % of control; (dose: 100.0 mg/kg/injection, schedule: Q01DX005 (ip), vehicle: Klucel (hydroxypropylcellulose) (HPC)) 98 % of control; (dose: 200.0 mg/kg/injection, schedule: Q01DX005 (ip), vehicle: Klucel (hydroxypropylcellulose) (HPC)) 92 % of control.
As for `C=CCCC1CN2CCc3cc(OC)c(OC)cc3C2CC1=O` (configuration not stated), the T/C is 113 % of control (dose: 50.0 mg/kg/injection, schedule: Q01DX009 (ip), vehicle: Klucel (hydroxypropylcellulose) (HPC)); 103 % of control (dose: 100.0 mg/kg/injection, schedule: Q01DX009 (ip), vehicle: Klucel (hydroxypropylcellulose) (HPC)); 105 % of control (dose: 200.0 mg/kg/injection, schedule: Q01DX009 (ip), vehicle: Klucel (hydroxypropylcellulose) (HPC)).
As for `O=C1CC2(CCCC2)CC(=O)N1c1ccc(O)c(CN2CCOCC2)c1`, the T/C by setting is: (dose: 100.0 mg/kg/injection, schedule: Q04DX002 (ip), vehicle: Klucel (hydroxypropylcellulose) (HPC)) 97 % of control; (dose: 200.0 mg/kg/injection, schedule: Q04DX002 (ip), vehicle: Klucel (hydroxypropylcellulose) (HPC)) 89 % of control; (dose: 400.0 mg/kg/injection, schedule: Q04DX002 (ip), vehicle: Klucel (hydroxypropylcellulose) (HPC)) 90 % of control.
With `CC/C(=N\Nc1cc(C)[nH]c(=O)c1)c1ccccc1`, the T/C under setting [11] is 98 % of control; the T/C under setting [12] was 86 % of control; the T/C (dose: 400.0 mg/kg/injection, schedule: Q01DX001 (ip), vehicle: saline with Tween-80) was 89 % of control.
Regarding `C/C(=N\NC(=O)c1ccncc1)c1cccc(/C(C)=N/NC(=O)c2ccncc2)n1.CC(=O)[O-].CC(=O)[O-].[Zn+2]`, the T/C (dose: 12.5 mg/kg/injection, schedule: Q01DX005 (ip), vehicle: saline with Tween-80) was 110 % of control; the T/C (dose: 25.0 mg/kg/injection, schedule: Q01DX005 (ip), vehicle: saline with Tween-80) was 104 % of control; the T/C under setting [9] was 88 % of control and 93 % of control.
Take `Nc1nc(SCc2ccccc2[N+](=O)[O-])c2[nH]cnc2n1`: the T/C runs as follows: under setting [6], 104 % of control; (dose: 100.0 mg/kg/injection, schedule: Q04DX003 (ip), vehicle: saline with Tween-80) 100 % of control; under setting [7], 95 % of control; (dose: 200.0 mg/kg/injection, schedule: Q04DX003 (ip), vehicle: saline with Tween-80) 100 % of control; under setting [8], 90 % of control; (dose: 400.0 mg/kg/injection, schedule: Q04DX003 (ip), vehicle: saline with Tween-80) 91 % of control.
In the case of `C[Si](C)(C)CSCC#N`, the T/C reads like this: under setting [11], 98 % of control; under setting [12], 107 % of control.
For `COC1C=C(Br)C(=O)C(C)O1` (configuration not stated), the T/C is, setting by setting: under setting [2], 98 % of control; under setting [4], 106 % of control.
